Reference: patent publication US20230041228A1, “Small Molecule Inhibition of Micro-RNA-210 Reprograms an Oncogenic Hypoxic Circuit” (University of Florida Research Foundation, Incorporated, priority 2017, published 2023)

How the values were obtained:
pre-miR-210 RNA = experiment: In solution fluorescent binding assay; settings: up to 5000 nM pre-miR-210 added
Protocol: Dissociation constants for the binding of pre-miR-210 RNA to Hoechst 33342 and Targapremir-210 were determined using an in solution, fluorescent binding assay. RNA was folded in 1× Binding Buffer (8 mM Na2HPO4, 190 mM NaCl, 1 mM EDTA, and 40 μg/mL BSA) at 60° C. for 5 min and then allowed to cool to room temperature for 10 min. Hoechst 33342 or Targapremir-210 was added to a final concentration of 500 nM. Next, 1:2 serial dilutions were performed in 1× Binding Buffer supplemented with 500 nM of Hoechst 33342 or Targapremir-210. Solutions were incubated for 30 min and then transferred to Corning non-binding surface 96-well black plates. Fluorescence intensity was then measured on a Bio-Tek FLX-800 plate reader. Change in fluorescence intensity was fit as a function of RNA concentration with equation 1: […]
where I and I0 are the observed fluorescence intensity in the presence and absence of RNA, respectively, Δε is the difference between the fluorescence intensity in the absence and in the presence of infinite RNA concentration, [FL]0 and [RNA]0 are the concentrations of compound (Hoechst 33342 or Targapremir-210) and RNA, respectively, and Kt is the dissociation constant.

miR-210 = experiment: RT-qPCR of miR-210 (mature, pri-, pre-) in MDA-MB-231 cells under hypoxic conditions; format: cell-based; settings: 200 nM, hypoxic MDA-MB-231 cells
Protocol: MDA-MB-231 cells were cultured in RPMI 1640 medium supplemented with 10% FBS (Sigma), 1× Glutagro (Corning), and 1× Pen/Strep (MP Biomedicals, LLC) (growth medium). Cells cultured in normoxia were maintained at 37° C. in ambient atmosphere (˜21% O2) with 5% CO2. Cells cultured in hypoxia were maintained at 37° C., <1% O2 in a nitrogen filled hypoxic chamber (Billups-Rothenberg, Inc.), and 5% CO2.
Approximately 200-600 ng of RNA was used in subsequent reverse transcription reactions using a miScript II RT Kit (Qiagen) or a qScript cDNA Synthesis Kit (Quanta Biosciences) per the manufacturers' recommended protocols. Primers for RT-qPCR were purchased from Integrated DNA Technologies (IDT) or Eurofins (Table S1) and used without further purification. RT-qPCR samples were prepared using Power SYBR Green PCR Master Mix (Applied Biosystems) and completed by using a 7900HT Fast Real Time PCR System (Applied Biosystems). Expression levels of RNA were normalized to U6 small nuclear RNA, GAPDH mRNA, or 18S rRNA.

## CCOc1ccc(-c2nc3ccc(-c4nc5ccc(N6CCN(C)CC6)cc5[nH]4)cc3[nH]2)cc1 [Hoechst 33342, reference compound]
pre-miR-210 RNA
  affinity for pre-miR-210: No saturable binding was observed
miR-210
  mature miR-210 levels: no statistically significant effect
